From patent publication US9334285B2, “Aldosterone synthase inhibitors” (Boehringer Ingelheim International GmbH, priority 2014, dated 2016) come the findings set out here.

One test has as its target T1, CYP19A1 (Homo sapiens, UniProt P11511).
T1 sequence (P11511 1-503): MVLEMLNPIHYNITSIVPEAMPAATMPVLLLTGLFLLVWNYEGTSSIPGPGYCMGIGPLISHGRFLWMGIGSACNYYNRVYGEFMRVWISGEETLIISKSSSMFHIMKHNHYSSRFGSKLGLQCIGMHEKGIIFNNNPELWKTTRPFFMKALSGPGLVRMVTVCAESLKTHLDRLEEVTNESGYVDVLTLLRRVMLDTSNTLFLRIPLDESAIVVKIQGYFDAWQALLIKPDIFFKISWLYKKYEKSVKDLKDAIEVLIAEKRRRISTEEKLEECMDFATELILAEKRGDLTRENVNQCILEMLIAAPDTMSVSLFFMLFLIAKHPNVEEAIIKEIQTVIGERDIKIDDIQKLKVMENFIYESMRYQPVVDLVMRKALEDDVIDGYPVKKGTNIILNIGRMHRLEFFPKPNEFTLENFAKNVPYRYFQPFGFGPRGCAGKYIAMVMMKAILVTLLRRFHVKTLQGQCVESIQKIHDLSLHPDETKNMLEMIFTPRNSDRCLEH
As to the kind of experiment: Inhibition of CYP19A1 (Kragie et al.). Format: biochemical.

Test [1] deals with cortisol synthase (CYP11B1) (Macaca fascicularis, UniProt A0A2K5ULY1). As to the kind of experiment: Inhibition of cortisol synthesis, cynomolgus adrenal mitochondria, 11-deoxycortisol as substrate. The settings on record: 150 units of CYP11B1, 11-deoxycortisol as substrate. Format: biochemical, cynomolgus monkey.
A further test deals with T2, rhCYP17A1 (Homo sapiens, UniProt P05093).
T2 construct: purchased Cypex
T2 sequence (P05093 1-508): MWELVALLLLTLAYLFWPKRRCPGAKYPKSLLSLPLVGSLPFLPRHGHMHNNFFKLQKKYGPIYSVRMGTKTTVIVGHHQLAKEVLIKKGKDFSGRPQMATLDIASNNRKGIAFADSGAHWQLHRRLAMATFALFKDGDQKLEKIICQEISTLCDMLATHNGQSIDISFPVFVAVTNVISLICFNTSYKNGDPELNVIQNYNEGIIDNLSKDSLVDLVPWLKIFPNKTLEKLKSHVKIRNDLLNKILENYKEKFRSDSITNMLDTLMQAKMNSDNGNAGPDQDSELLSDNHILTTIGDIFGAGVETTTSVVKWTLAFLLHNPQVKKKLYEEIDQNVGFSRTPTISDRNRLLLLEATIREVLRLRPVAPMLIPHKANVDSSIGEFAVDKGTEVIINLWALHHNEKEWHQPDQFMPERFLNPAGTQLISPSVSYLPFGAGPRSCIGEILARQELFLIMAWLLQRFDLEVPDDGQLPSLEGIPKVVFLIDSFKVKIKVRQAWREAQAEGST
Briefly: Inhibition of CYP17A1, progesterone to 17-α-hydroxyprogesterone, mass spectrometry. Format: biochemical. The procedure: Compounds of the invention may also be evaluated for inhibition of CYP17A1 via the following assay:
Reactions are started by the addition of NADPH to 1 mM and allowed to proceed for 15 minutes at 37° C. Reactions are terminated by the addition of 40 μL of MeCN containing an internal standard for mass spectrometry. The plates are centrifuged at 3000 rpm for 5 min and the reaction product 17-α-hydroxyprogesterone is quantified by mass spectrometry. To determine the assay blank value (0% activity), NADPH is omitted from some reactions.
Dose dependent inhibition is quantified by the inclusion of compound at various concentrations. Maximum activity (100%) is defined by reactions containing NADPH, but without compound.

The target of test [2] is T3, aldosterone synthase (CYP11B2) (Macaca fascicularis, UniProt A0A2K5UPL9).
T3 construct: employ cynomolgus adrenal gland mitochondria as the source of aldosterone synthase (CYP11B2); from tissue; host or cells: cynomolgus monkey adrenal gland mitochondria
T3 sequence (A0A2K5UPL9 1-503): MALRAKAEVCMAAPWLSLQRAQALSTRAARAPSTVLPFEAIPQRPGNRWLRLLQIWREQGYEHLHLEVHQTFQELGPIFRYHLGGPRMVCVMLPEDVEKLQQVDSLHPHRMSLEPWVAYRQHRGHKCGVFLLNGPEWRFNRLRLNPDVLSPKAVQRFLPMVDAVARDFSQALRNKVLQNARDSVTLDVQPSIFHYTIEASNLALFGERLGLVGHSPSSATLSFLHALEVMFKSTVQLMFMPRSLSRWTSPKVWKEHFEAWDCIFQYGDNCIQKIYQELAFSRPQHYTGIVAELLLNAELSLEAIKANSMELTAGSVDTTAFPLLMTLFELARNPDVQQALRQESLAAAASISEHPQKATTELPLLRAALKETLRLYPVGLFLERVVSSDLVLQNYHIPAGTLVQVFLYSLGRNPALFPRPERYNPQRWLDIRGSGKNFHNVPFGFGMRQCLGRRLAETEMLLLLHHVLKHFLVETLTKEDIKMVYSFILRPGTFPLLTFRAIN
As to the kind of experiment: Inhibition of aldosterone synthase, cynomolgus adrenal mitochondria, aldosterone quantified by mass spectrometry. It is filed as biochemical, cynomolgus monkey. The settings on record: 2 μM corticosterone, 90 minutes at 37° C. In outline: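 Cynomolgus adrenal mitochondria (50 units CYP11B2 activity) incubated with 2 μM corticosterone in 100 mM potassium phosphate pH 7.4, 1% DMSO; started with 1 mM NADPH, 90 min at 37 °C. Aldosterone quantified by mass spectrometry; no-NADPH blank as 0%, no-compound as 100% activity, across compound concentrations.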

Setting [3] is: cynomolgus adrenal mitochondria, read-out: Cortisol Inhibition IC50.
Setting [4] is: rhCYP17A1, 150 nM progesterone, 15 minutes at 37° C., read-out: CYP17A1 IC50.
Where [5] appears, read: Cortisol Inhibition IC50, cynomolgus adrenal mitochondria.

Each structure is given as a SMILES string. Where two headings read alike, the source gives them in different places.

One may read the IC50 as the midpoint of a concentration-inhibition curve. Regarding `Cc1cc(C#N)ccc1-n1cnc2c1C(=O)OC(C)(CO)C2` (single isomer, unassigned) [Compound 31A, 4-[6-(hydroxymethyl)-6-methyl-4-oxo-3H,4H,6H,7H-pyrano[3,4-d]imidazol-3-yl]-3-methylbenzonitrile], the half-inhibitory concentration (IC50) is more than 20 µM on CYP19A1 (read-out: CYP19A1 IC50), 3.6 µM in test [1] (setting [3]), more than 20 µM at rhCYP17A1 (setting [4]) and 0.023 µM in test [2].

As to `N#Cc1ccc(-n2cnc3c2C(=O)OC(CO)C3)cc1Cl` (single isomer, unassigned) [Compound 33A, 2-chloro-4-[6-(hydroxymethyl)-4-oxo-3H,4H,6H,7H-pyrano[3,4-d]imidazol-3-yl]benzonitrile], the IC50 at CYP19A1 was more than 20 µM; in test [1] (setting [5]), 45 µM; at rhCYP17A1, more than 20 µM; in test [2], 0.089 µM.

Take `CC1(C(=O)O)Cc2ncn(-c3ccc(C#N)c(Cl)c3)c2C(=O)O1` (stereo not drawn) [Compound 44, 3-(3-Chloro-4-cyano-phenyl)-6-methyl-4-oxo-3,4,6,7-tetrahydro-pyrano[3,4-d]imidazole-6-carboxylic acid]: the IC50 was more than 20 µM at CYP19A1 (read-out: CYP19A1 IC50), more than 30 µM in test [1] (setting [5]), more than 20 µM at rhCYP17A1 (setting [4]) and 0.67 µM in test [2].

For `CC1(C)Cc2ncn(-c3ccc(C#N)cc3Cl)c2C(=O)O1` [Compound 18, 3-chloro-4-{6,6-dimethyl-4-oxo-3H,4H,6H,7H-pyrano[3,4-d]imidazol-3-yl}benzonitrile], the IC50 at CYP19A1 (read-out: CYP19A1 IC50) is more than 20 µM; in test [1] (setting [3]), 4.1 µM; at rhCYP17A1 (setting [4]) it was more than 20 µM; in test [2], 0.017 µM.

For the compound `Cc1cc(-n2cnc3c2C(=O)OC(C)(C)C3)ccc1C#N` [Compound 11, 4-{6,6-dimethyl-4-oxo-3H,4H,6H,7H-pyrano[3,4-d]imidazol-3-yl}-2-methylbenzonitrile], the IC50 on CYP19A1 (read-out: CYP19A1 IC50) is more than 20 µM; in test [1] (setting [3]), 0.59 µM; at rhCYP17A1 (setting [4]), more than 20 µM; in test [2] it was 0.0049 µM.

As for `CC1(CO)Cc2ncn(-c3cccc(F)c3Cl)c2C(=O)O1` (single isomer, unassigned) [Compound 34B, 3-(2-chloro-3-fluorophenyl)-6-(hydroxymethyl)-6-methyl-3H,4H,6H,7H-pyrano[3,4-d]imidazol-4-one], the IC50 on CYP19A1 (read-out: CYP19A1 IC50) is more than 20 µM; in test [1] (setting [3]) it was 19 µM; on rhCYP17A1 (setting [4]) it was more than 20 µM; in test [2] it was 0.12 µM.
